Experiment [1] relates to BH4 levels in SK-N-BE (2) cells. Nature of the experiment: SKN-N-BE (2) cellular assay, BH4 levels by LC-MS. The experiment is classed as cell-based. Particulars: Homo sapiens, SKNBE2, read-out: SK-N-BE(2) IC50, SK-N-BE (2) cells, BH4 levels by LC-MS.
Experiment [2] has as its system BH4 production in human peripheral blood mononuclear cells (PBMCs). Nature of the experiment: hPBMC assay, inhibition of BH4 production by LC-MS (anti-CD3/anti-CD28 stimulated). The experiment is classed as cell-based. Particulars: PBMC, read-out: hPBMC IC50.
Experiment [3] has as its target SNAP-hSPR (sepiapterin reductase, SPR) (Homo sapiens, UniProt P35270). Put plainly: biochemical. The experiment is classed as binding. Particulars: terbium labelled SNAP-hSPR / SSZ labelled SNAP-EGFP; read-out: hTR-FRET IC50.

SNAP-hSPR (sepiapterin reductase, SPR), sequence (P35270 whole entry): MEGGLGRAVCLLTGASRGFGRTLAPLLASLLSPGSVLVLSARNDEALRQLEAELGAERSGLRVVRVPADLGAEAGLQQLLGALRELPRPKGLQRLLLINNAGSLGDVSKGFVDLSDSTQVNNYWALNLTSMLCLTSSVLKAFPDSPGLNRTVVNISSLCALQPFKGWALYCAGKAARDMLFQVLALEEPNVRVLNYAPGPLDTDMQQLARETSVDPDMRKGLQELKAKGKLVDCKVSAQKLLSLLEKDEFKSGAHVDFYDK

Regarding `Cc1c(C(=O)N2C[C@@H]3C[C@H]2CN3Cc2ccccc2)cnn1-c1nn2cccc2c(=O)[nH]1` [Q-1033], the 50% inhibitory concentration (IC50) (as a rule, the point on the concentration scale where inhibition reaches its midpoint) in experiment [1] amounted to 400 nM; in experiment [2] it was 260 nM; in experiment [3] it was 8 nM.

With `Cc1c(C(=O)N2CC=C(C3(C#N)CC3)CC2)cnn1-c1nn2cccc2c(=O)[nH]1` [Q-1034], the IC50 is 200 nM in experiment [1], 160 nM in experiment [2] and 2 nM in experiment [3].

In the case of `Cc1c(C(=O)N2CC(F)(c3ccccc3)C2)cnn1-c1nn2cccc2c(=O)[nH]1` [Q-1038], the figures for the half-inhibitory concentration (IC50) in experiment [1], in experiment [2] and in experiment [3] were 300 nM, 340 nM and 2 nM, respectively.

Turning to `CC[C@H](C#N)C1CCN(C(=O)c2cnn(-c3nc4c(c(=O)[nH]3)CCC4)c2C)CC1` [Q-1041], the results for the concentration for half-maximal inhibition (IC50) in experiment [1], in experiment [2] and in experiment [3] were 46 nM, 28 nM and 1 nM, respectively.

With `Cc1c(C(=O)N2CCC(C(=O)N3CCCC3)(C(F)(F)F)CC2)cnn1-c1nn2cccc2c(=O)[nH]1` [Q-1046], the figures for the concentration for half-maximal inhibition (IC50) in experiment [1], in experiment [2] and in experiment [3] were 100 nM, 83 nM and 1 nM, respectively.

Take `CCC(C#N)C1(F)CCN(C(=O)c2cnn(-c3nn4cccc4c(=O)[nH]3)c2C)CC1` (stereo not drawn) [Q-1047]: the results for the 50% inhibitory concentration (IC50) in experiment [1], in experiment [2] and in experiment [3] were 200 nM, 66 nM and 1 nM, respectively.

As to `Cc1c(C(=O)N2CC3C(C2)C3(C)C)cnn1-c1nc2c(c(=O)[nH]1)CCC2` (stereo not drawn) [Q-1048], the IC50 worked out at 200 nM in experiment [1], 50 nM in experiment [2] and 1 nM in experiment [3].

In the case of `Cc1c(C(=O)N2CCC(C(F)F)CC2)cnn1-c1nc2c(c(=O)[nH]1)CCC2` [Q-1049], the IC50 in experiment [1] worked out at 72 nM; in experiment [2], 25 nM; in experiment [3] it was 2 nM.

With `CCC(C1CCN(C(=O)c2cnn(-c3nn4cccc4c(=O)[nH]3)c2C)CC1)C(F)(F)F` (stereo not drawn) [Q-1051], the figures for the 50% inhibitory concentration (IC50) in experiment [1], in experiment [2] and in experiment [3] were 53 nM, 27 nM and 1 nM, respectively.

For the compound `CCC(O)(C1CCN(C(=O)c2cnn(-c3nn4cccc4c(=O)[nH]3)c2C)CC1)C(F)(F)F` (stereo not drawn) [Q-1052], the IC50 in experiment [1] stood at 44 nM; in experiment [2], 83 nM; in experiment [3] it was 1 nM.

On to `CCC1(C#N)CC12CCN(C(=O)c1cnn(-c3nn4cccc4c(=O)[nH]3)c1C)CC2` (stereo not drawn) [Q-1053], for which the IC50 in experiment [1] stood at 200 nM; in experiment [2] it was 230 nM; in experiment [3], 1 nM.

As to `Cc1c(C(=O)N2CCN(C(C)C(F)(F)F)CC2)cnn1-c1nc2c(c(=O)[nH]1)CCC2` (stereo not drawn) [Q-1054], the 50% inhibitory concentration (IC50) in experiment [1] worked out at 28 nM; in experiment [2], 60 nM; in experiment [3], 1 nM.

As for `CCC(C#N)C1(O)CCN(C(=O)c2cnn(-c3nn4cccc4c(=O)[nH]3)c2C)CC1` (stereo not drawn) [Q-1055], the values for the IC50 in experiment [1], in experiment [2] and in experiment [3] were 700 nM, 160 nM and 1 nM, respectively.

Consider `Cc1c(C(=O)N2CCC(c3nc(-c4ccccc4)cs3)CC2)cnn1-c1nc2c(c(=O)[nH]1)CCC2` [Q-1056], for which the 50% inhibitory concentration (IC50) in experiment [1] came to 16 nM; in experiment [2], 55 nM; in experiment [3], 3 nM.

For the compound `Cc1c(C(=O)N2CCC3(CC2)CC3C(=O)N2CCCCC2)cnn1-c1nn2cccc2c(=O)[nH]1` (stereo not drawn) [Q-1057], the IC50 was determined as 100 nM in experiment [1], 67 nM in experiment [2] and 1 nM in experiment [3].

For the compound `Cc1c(C(=O)N2CCC3(CC2)CC3C(=O)N2CCCCC2)cnn1-c1nc2c(c(=O)[nH]1)CCC2` (stereo not drawn) [Q-1058], the IC50 in experiment [1] worked out at 93 nM; in experiment [2] it was 150 nM; in experiment [3], 2 nM.

`Cc1c(C(=O)N2CCC(F)(C#N)C2)cnn1-c1nn2cccc2c(=O)[nH]1` (stereo not drawn) [Q-1059]: the IC50 worked out at 1300 nM in experiment [1], 2100 nM in experiment [2] and 2 nM in experiment [3].

`Cc1c(C(=O)N2CCN(CCC(F)(F)F)CC2)cnn1-c1nn2cccc2c(=O)[nH]1` [Q-1060]: the IC50 in experiment [1] came out at 200 nM; in experiment [2], 220 nM; in experiment [3] it was 2 nM.

For the compound `Cc1c(C(=O)N2CCC3(CC2)CC3C(=O)N2CCCC2)cnn1-c1nc2c(c(=O)[nH]1)CCC2` (stereo not drawn) [Q-1061], the concentration for half-maximal inhibition (IC50) stood at 400 nM in experiment [1], 210 nM in experiment [2] and 3 nM in experiment [3].

The values above are taken from patent US9963462B2 (priority 2015, dated 2018).
